Results published in patent US5547939A, “Broad spectrum antimicrobial compounds and methods of use” (priority 1994, dated 1996).

What was measured:
erythrocyte suspension = test: Hemolytic assay (erythrocyte lysis assay); format: cell-based; conditions: for % Hemolysis: 30 μg peptide, 18 hr at 37° C., 100% lysis = 1% NP40
Protocol: The hemolytic activity of each peptide was examined using an erythrocyte lysis assay. An 8% (vol:vol) erythrocyte suspension in normal saline or in 80% mouse serum was incubated with 30 μg peptide. After 18 hr incubation at 37° C. intact erythrocytes were removed by centrifugation and the A550 of the supernatant was determined as a measure of hemolysis. As a control (100% lysis), supernatant was collected from an erythrocyte suspension treated with 1% NP40 detergent.

Escherichia coli ML35 [1] = test: Dose response bactericidal assay (CFU reduction), E. coli; format: cell-based; conditions: 2 hr incubation
Protocol: (§1) The time course and dose-dependence of the antimicrobial activity of an indolicidin analog can be determined by incubating a microorganism with the analog and determining the viability after various times of incubation or after treatment with various concentrations of the analog. Assays were performed in 10 mM sodium phosphate buffer, pH 7.4, at 37° C., as described by Selsted et al. (Infect. Immun. 45:150-154 (1985), which is incorporated herein by reference).
(§2) The dose response of a gram negative bacterial strain, Escherichia coli ML35, and a gram positive bacterial strain, Staphylococcus aureus 502A, to indolicidin was determined by incubating 2×10^6 colony forming units (CFU) of log phase bacteria with 0-25 ug/ml of indolicidin for two hours. Following incubation, the cultures were serially diluted and plated on nutrient agar. […] E. coli was more susceptible than S. aureus, as>95% of the input cells were killed after 2 hr incubation with 2.5 ug/ml indolicidin. The indolicidin diluent, 0.01% acetic acid, had no effect on either bacterial strain.

[2] = system: Staphylococcus aureus 502A; test: Dose response bactericidal assay (CFU reduction), S. aureus; format: cell-based; conditions: 10 ug/ml, 2 hr incubation, 2×10^6 CFU, 10 mM sodium phosphate pH 7.4, 37° C.
Protocol: as §1, §2

E. coli = test: Microbicidal kinetics of indolicidin; format: cell-based, Escherichia coli; conditions: 25 μg/ml
Protocol: as §1
The kinetics of indolicidin antimicrobial activity was evaluated by incubating 2×10^6 E. coli with 25 ug/ml of indolicidin for 1-40 min. Following incubation for the appropriate time, an aliquot of the culture was removed and diluted and plated as described above.

Escherichia coli ML35 [3] = test: Agar diffusion assay, E. coli; format: cell-based; conditions: E. coli ML35, FIG. 4
Protocol: (§3) The broad spectrum antimicrobial activity of indolicidin and indolicidin analogs also was determined using a gram negative bacterial strain, Escherichia coli ML35, a gram positive bacterial strain, Staphylococcus aureus 502A, and a fungus, Cryptococcus neoformans, in an agar diffusion assay, essentially as described by Hultmark et al., EMBO J. 2:571-576 (1983) as modified by Lehrer et al., J. Immunol. Meth. 137:167-173. Briefly, nutrient-containing agar (or agarose) plates were seeded with a selected target microorganism and 5-10 μl of peptide was placed into a well formed in the solid medium or onto a disc placed on the surface of the medium. Following an appropriate incubation interval, microbial growth inhibition was visualized and quantitated by measuring the clear zone around each well or disc (see, also, Selsted, 1993).

[4] = system: Staphylococcus aureus 502A; test: Agar diffusion assay, S. aureus; format: cell-based; conditions: S. aureus 502a, FIG. 6
Protocol: as §3

Cryptococcus neoformans = test: Agar diffusion assay, C. neoformans; format: cell-based; conditions: FIG. 5
Protocol: as §3

[5] = five attempts to raise antibodies
[6] = saline, 8% erythrocyte suspension in normal saline
[7] = serum, 8% erythrocyte suspension in 80% mouse serum

Molecule | % Hemolysis (erythrocyte suspension; [6]) [%] | % Hemolysis (erythrocyte suspension; [7]) [%] | antimicrobial activity (clear zone) compared with indolicidin (Escherichia coli ML35 [3]) | antimicrobial activity (clear zone) compared with indolicidin [4] | antimicrobial activity (clear zone) compared with indolicidin (Cryptococcus neoformans) | also measured
CC[C@H](C)[C@H](N)C(=O)N[C@@H](CC(C)C)C(=O)N1CCC[C@H]1C(=O)N[C@@H](Cc1c[nH]c2ccccc12)C(=O)N[C@@H](CCCCN)C(=O)N[C@@H](Cc1c[nH]c2ccccc12)C(=O)N1CCC[C@H]1C(=O)N[C@@H](Cc1c[nH]c2ccccc12)C(=O)N[C@@H](Cc1c[nH]c2ccccc12)C(=O)N1CCC[C@H]1C(=O)N[C@@H](Cc1c[nH]c2ccccc12)C(=O)N[C@@H](CCCNC(=N)N)C(=O)N[C@@H](CCCNC(=N)N)C(N)=O [Indol-R12 R13 --NH2, H2 N--I--L--P--W--K--W--P--W--W--P--W--R--R--CONH2] | 78.5 | 2.3 | greatest antimicrobial activity | greatest antimicrobial activity | greatest antimicrobial activity | % Hemolysis (erythrocyte suspension; saline, 8% erythrocyte suspension in normal saline, listed as indolicidin): greatest hemolytic activity; input cells killed (Escherichia coli ML35 [1]; 2.5 ug/ml): > 95%; reduction of viability (CFU) (Escherichia coli ML35 [1]; 10 ug/ml, 2×10^6 CFU, 10 mM sodium phosphate pH 7.4, 37° C.): reduced by at least four orders of magnitude; reduction of viability (CFU) [2]: reduced by at least four orders of magnitude; state of the culture (E. coli; after 20 min): essentially was sterilized; reduction of number of E. coli CFU (E. coli; within 5 min): three orders of magnitude; immunogenicity [5]: extremely low immunogenicity
H2 N--I--L--P--W--K--W--P--W--W--P--W--R--N--CONH2 [Indol-R12 W13 --NH2] | – | – | markedly less potent than indolicidin | markedly less potent than indolicidin | markedly less potent than indolicidin | –
H2 N--I--L--P--W--K--W--P--W--W--P--W--K--CONH2 (H-ILPWKWPWWPWK-NH2) [Indol-K12 --NH2, indolicidin analog having a deletion of R-13 and a substitution of K-12 for R-12] | – | – | – | – | – | antimicrobial selectivity (antimicrobial activity relative to hemolytic activity) compared with indolicidin (erythrocyte suspension; FIGS. 4-6 and Table 2): greater antimicrobial selectivity than indolicidin
CC[C@H](C)[C@H](N)C(=O)N[C@@H](CC(C)C)C(=O)N1CCC[C@H]1C(=O)N[C@@H](Cc1c[nH]c2ccccc12)C(=O)N[C@@H](CCCCN)C(=O)N[C@@H](Cc1c[nH]c2ccccc12)C(=O)N1CCC[C@H]1C(=O)N[C@@H](Cc1c[nH]c2ccccc12)C(=O)N[C@@H](Cc1c[nH]c2ccccc12)C(=O)N1CCC[C@H]1C(=O)N[C@@H](Cc1c[nH]c2ccccc12)C(=O)N[C@@H](CCCNC(=N)N)C(=O)N[C@@H](CCCNC(=N)N)C(=O)O [Indol-R12 R13 --OH, H2 N--I--L--P--W--K--W--P--W--W--P--W--R--R--OH] | 47.9 | 3.0 | – | – | – | –
H2 N--I--L--P--W--K--W--P--W--W--P--W--R--OH (H-ILPWKWPWWPWR-OH) [Indol-R12 --OH, indolicidin analog] | – | – | markedly less potent than indolicidin | markedly less potent than indolicidin | markedly less potent than indolicidin | –
